# Data as given in PubChem BioAssay AID330 (DTP/NCI, 2004).
# Several values for one entry are separate records, joined by “and”; a condition that tells them apart may be missing. Equal entries are not always repeated. Toxic doses and inconclusive results are not listed.
# Test system: P388 leukemia ip, CD2F1 mice, survival T/C
# Assay: NCI In Vivo Anticancer Drug Screen. Data for tumor model P388 Leukemia (intraperitoneal) in CD2F1 (CDF1) mice
# Conditions: endpoint: median survival time, higher = longer survival
# Summary of the method: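 Mice carrying the transplanted tumor received test compound or vehicle. Survival was recorded in each group, and the value is the treated-group measurement divided by that of the vehicle-treated control group.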
# [1] = dose: 50.0 mg/kg/injection, schedule: Q01DX005 (ip), vehicle: saline with Tween-80
# [2] = dose: 100.0 mg/kg/injection, schedule: Q01DX005 (ip), vehicle: saline with Tween-80
# [3] = dose: 200.0 mg/kg/injection, schedule: Q01DX005 (ip), vehicle: saline with Tween-80
# [4] = dose: 50.0 mg/kg/injection, schedule: Q01DX005 (ip), vehicle: Klucel (hydroxypropylcellulose) (HPC)
# [5] = dose: 100.0 mg/kg/injection, schedule: Q01DX005 (ip), vehicle: Klucel (hydroxypropylcellulose) (HPC)
# [6] = dose: 60.0 mg/kg/injection, schedule: Q01DX005 (ip), vehicle: Klucel (hydroxypropylcellulose) (HPC)
# [7] = dose: 120.0 mg/kg/injection, schedule: Q01DX005 (ip), vehicle: Klucel (hydroxypropylcellulose) (HPC)
# [8] = dose: 240.0 mg/kg/injection, schedule: Q01DX005 (ip), vehicle: Klucel (hydroxypropylcellulose) (HPC)
# [9] = dose: 60.0 mg/kg/injection, schedule: Q01DX005 (ip), vehicle: saline with Tween-80
# [10] = dose: 120.0 mg/kg/injection, schedule: Q01DX005 (ip), vehicle: saline with Tween-80
# [11] = dose: 240.0 mg/kg/injection, schedule: Q01DX005 (ip), vehicle: saline with Tween-80
# [12] = dose: 50.0 mg/kg/injection, schedule: Q01DX009 (ip), vehicle: saline with Tween-80
# [13] = dose: 100.0 mg/kg/injection, schedule: Q01DX009 (ip), vehicle: saline with Tween-80
# [14] = dose: 200.0 mg/kg/injection, schedule: Q01DX009 (ip), vehicle: saline with Tween-80
smiles,measurement,setting,value
ClC12CCC(c3ccccc3)(CC1)CC2,T/C,"dose: 50.0 mg/kg/injection, schedule: Q01DX009 (ip), vehicle: Klucel (hydroxypropylcellulose) (HPC)",105 % of control
same,T/C,"dose: 100.0 mg/kg/injection, schedule: Q01DX009 (ip), vehicle: Klucel (hydroxypropylcellulose) (HPC)",108 % of control
same,T/C,"dose: 200.0 mg/kg/injection, schedule: Q01DX009 (ip), vehicle: Klucel (hydroxypropylcellulose) (HPC)",99 % of control
CCCCCCCCCCCCCCC(C(=O)[O-])[n+]1ccccc1 (stereo not drawn),T/C,"dose: 15.0 mg/kg/injection, schedule: Q01DX005 (ip), vehicle: saline",114 % of control
same,T/C,"dose: 30.0 mg/kg/injection, schedule: Q01DX005 (ip), vehicle: saline",96 % of control
same,T/C,"dose: 60.0 mg/kg/injection, schedule: Q01DX005 (ip), vehicle: saline",110 % of control
CN(C)CCC1C2CC3CC(C2)CC1C3 (stereo not drawn),T/C,"dose: 50.0 mg/kg/injection, schedule: Q01DX009 (ip), vehicle: saline",94 % of control
same,T/C,"dose: 100.0 mg/kg/injection, schedule: Q01DX009 (ip), vehicle: saline",94 % of control
COc1ccc(C(C)c2cc(C(C)(C)C)cc(C(C)(C)C)c2O)cc1 (stereo not drawn),T/C,"dose: 50.0 mg/kg/injection, schedule: Q01DX005 (ip), vehicle: distilled water + alcohol",100 % of control
same,T/C,"dose: 100.0 mg/kg/injection, schedule: Q01DX005 (ip), vehicle: distilled water + alcohol",96 % of control
same,T/C,"dose: 200.0 mg/kg/injection, schedule: Q01DX005 (ip), vehicle: distilled water + alcohol",94 % of control
C[C@]12C=CC(=O)C[C@@H]1CC[C@@H]1[C@@H]2C(=O)C[C@]2(C)C(=O)CC[C@@H]12,T/C,"dose: 100.0 mg/kg/injection, schedule: Q04DX003 (ip), vehicle: saline with Tween-80",108 % of control
same,T/C,"dose: 200.0 mg/kg/injection, schedule: Q04DX003 (ip), vehicle: saline with Tween-80",91 % of control
same,T/C,"dose: 400.0 mg/kg/injection, schedule: Q04DX003 (ip), vehicle: saline with Tween-80",108 % of control
COc1ccc(C(=O)/C=C/c2ccc3c(c2)OCO3)c(OCc2ccccc2)c1,T/C,"dose: 3.75 mg/kg/injection, schedule: Q01DX009 (ip), vehicle: Klucel (hydroxypropylcellulose) (HPC)",98 % of control
same,T/C,"dose: 7.5 mg/kg/injection, schedule: Q01DX009 (ip), vehicle: Klucel (hydroxypropylcellulose) (HPC)",99 % of control
same,T/C,"dose: 15.0 mg/kg/injection, schedule: Q01DX009 (ip), vehicle: Klucel (hydroxypropylcellulose) (HPC)",98 % of control
same,T/C,"dose: 30.0 mg/kg/injection, schedule: Q01DX009 (ip), vehicle: Klucel (hydroxypropylcellulose) (HPC)",94 % of control
COc1c(CCl)cc(-c2sc3ccccc3c(=O)c2CCl)cc1CCl,T/C,"dose: 25.0 mg/kg/injection, schedule: Q01DX005 (ip), vehicle: saline with Tween-80",106 % of control and 93 % of control
same,T/C,[1],100 % of control and 114 % of control and 97 % of control
same,T/C,[2],100 % of control and 106 % of control
same,T/C,[3],108 % of control and 124 % of control
Clc1cc[c]([Sn]([Cl])([O][Sn]([Cl])([c]2ccc(Cl)cc2)[c]2ccc(Cl)cc2)[c]2ccc(Cl)cc2)cc1,T/C,"dose: 3.12 mg/kg/injection, schedule: Q01DX005 (ip), vehicle: saline",103 % of control
same,T/C,"dose: 6.25 mg/kg/injection, schedule: Q01DX005 (ip), vehicle: saline",108 % of control
same,T/C,"dose: 12.5 mg/kg/injection, schedule: Q01DX005 (ip), vehicle: saline",119 % of control
same,T/C,"dose: 25.0 mg/kg/injection, schedule: Q01DX005 (ip), vehicle: saline",162 % of control
COC(=O)CCC1=C(C)c2cc3[nH]c(cc4[nH]c(cc5nc(cc1n2)C(CCC(=O)OC)=C5C)c(C#N)c4C)c(C#N)c3C,T/C,[4],104 % of control
same,T/C,[5],95 % of control
same,T/C,"dose: 200.0 mg/kg/injection, schedule: Q01DX005 (ip), vehicle: Klucel (hydroxypropylcellulose) (HPC)",100 % of control
Nc1nc(N)c2cc(S(=O)(=O)c3nc(-c4ccccc4)cs3)ccc2n1,T/C,[6],98 % of control
same,T/C,[7],98 % of control
same,T/C,[8],105 % of control
O=C1COCC(=O)OCCOCCOCCOCCO1,T/C,"dose: 100.0 mg/kg/injection, schedule: Q04DX003 (ip), vehicle: Klucel (hydroxypropylcellulose) (HPC)",99 % of control
same,T/C,"dose: 200.0 mg/kg/injection, schedule: Q04DX003 (ip), vehicle: Klucel (hydroxypropylcellulose) (HPC)",102 % of control
same,T/C,"dose: 400.0 mg/kg/injection, schedule: Q04DX003 (ip), vehicle: Klucel (hydroxypropylcellulose) (HPC)",99 % of control
CCCCOC1NC(=O)Oc2ccccc21 (stereo not drawn),T/C,[9],100 % of control and 103 % of control and 97 % of control
same,T/C,[10],101 % of control and 108 % of control (2×)
same,T/C,[11],100 % of control and 109 % of control
O=C1CN(C(=O)Nc2ccc(Cl)c(Cl)c2)C(=S)N1,T/C,"dose: 6.25 mg/kg/injection, schedule: Q01DX009 (ip), vehicle: Klucel (hydroxypropylcellulose) (HPC)",88 % of control
same,T/C,"dose: 12.5 mg/kg/injection, schedule: Q01DX009 (ip), vehicle: Klucel (hydroxypropylcellulose) (HPC)",101 % of control
same,T/C,"dose: 25.0 mg/kg/injection, schedule: Q01DX009 (ip), vehicle: Klucel (hydroxypropylcellulose) (HPC)",103 % of control and 90 % of control
COc1cccc(/C=N/Nc2cc(C)nc3cc4c(cc23)OCO4)c1,T/C,"dose: 6.25 mg/kg/injection, schedule: Q01DX005 (ip), vehicle: Klucel (hydroxypropylcellulose) (HPC)",104 % of control
same,T/C,"dose: 12.5 mg/kg/injection, schedule: Q01DX005 (ip), vehicle: Klucel (hydroxypropylcellulose) (HPC)",97 % of control
same,T/C,"dose: 25.0 mg/kg/injection, schedule: Q01DX005 (ip), vehicle: Klucel (hydroxypropylcellulose) (HPC)",100 % of control and 87 % of control
same,T/C,[4],100 % of control and 102 % of control and 96 % of control
same,T/C,[5],95 % of control
CCCCn1cnc2c(cnn2C)c1=N,T/C,"dose: 100.0 mg/kg/injection, schedule: Q04DX002 (ip), vehicle: saline",97 % of control
same,T/C,"dose: 200.0 mg/kg/injection, schedule: Q04DX002 (ip), vehicle: saline",97 % of control
[O-][N+]1=C(/C=C/C=C/c2ccccc2)CCC1,T/C,"dose: 50.0 mg/kg/injection, schedule: Q01DX009 (ip), vehicle: other",95 % of control
same,T/C,"dose: 100.0 mg/kg/injection, schedule: Q01DX009 (ip), vehicle: other",107 % of control
same,T/C,"dose: 200.0 mg/kg/injection, schedule: Q01DX009 (ip), vehicle: other",118 % of control
CSc1ccc(N=C(N)N)cc1,T/C,[12],108 % of control
same,T/C,[13],110 % of control
OO.OO.[Cr+3].[NH-]CC[N-]CC[NH-],T/C,[12],94 % of control
same,T/C,[13],99 % of control
OCCNCCNc1ccnc2c1ccc1ccccc12,T/C,[1],105 % of control
O=C(c1ccccc1)N1C=CN(C(=O)c2ccccc2)C1c1nccn1C(=O)c1ccccc1,T/C,[12],105 % of control
same,T/C,[13],96 % of control
same,T/C,[14],91 % of control
Cc1ccc(N2[C@H]3CCCN3c3ccc(C)cc3[C@@H]2C(F)(F)F)cc1,T/C,[1],110 % of control
same,T/C,[2],100 % of control
same,T/C,[3],100 % of control
Cc1cc(O)c2c(c1O)C(=O)c1cc(O)cc(O)c1C2=O,T/C,"dose: 6.25 mg/kg/injection, schedule: Q01DX005 (ip), vehicle: saline + alcohol",104 % of control
same,T/C,"dose: 12.5 mg/kg/injection, schedule: Q01DX005 (ip), vehicle: saline + alcohol",101 % of control
same,T/C,"dose: 25.0 mg/kg/injection, schedule: Q01DX005 (ip), vehicle: saline + alcohol",99 % of control
O=C(OC(c1ccccc1)c1ccccc1)c1ccc([N+](=O)[O-])cc1,T/C,[12],101 % of control
same,T/C,[13],106 % of control
same,T/C,[14],108 % of control
COc1ccc(C(Nc2ccc([N+](=O)[O-])cc2)P(=O)(c2ccccc2)c2ccccc2)cc1 (stereo not drawn),T/C,[9],99 % of control
same,T/C,[10],92 % of control
same,T/C,[11],88 % of control
CN(C)/N=C1/CC(=O)CC(C)(C)C1,T/C,[6],102 % of control
same,T/C,[7],100 % of control
same,T/C,[8],99 % of control
NCCCCC(C(=O)NC(CO)C(=O)O)N(C(=O)OCc1ccccc1)C(=O)OCc1ccccc1 (stereo not drawn),T/C,[1],101 % of control
same,T/C,[2],101 % of control
same,T/C,[3],90 % of control
CN(C)/C=C/c1ccc([N+](=O)[O-])o1,T/C,"dose: 50.0 mg/kg/injection, schedule: Q01DX009 (ip), vehicle: suspension in saline",100 % of control
same,T/C,"dose: 100.0 mg/kg/injection, schedule: Q01DX009 (ip), vehicle: suspension in saline",104 % of control
same,T/C,"dose: 200.0 mg/kg/injection, schedule: Q01DX009 (ip), vehicle: suspension in saline",118 % of control
CP(=Nc1ccccc1)(c1ccccc1)c1ccccc1,T/C,"dose: 100.0 mg/kg/injection, schedule: Q01DX001 (ip), vehicle: saline with Tween-80",95 % of control
same,T/C,"dose: 200.0 mg/kg/injection, schedule: Q01DX001 (ip), vehicle: saline with Tween-80",99 % of control
same,T/C,"dose: 400.0 mg/kg/injection, schedule: Q01DX001 (ip), vehicle: saline with Tween-80",102 % of control
